Assay results taken from patent US7314747B1, “SMRT co-repressors, transcriptional co-repressors that interact with nuclear hormone receptors” (The Salk Institute for Biological Studies, priority 1995, dated 2008).

Legend:
[1] = biological target: T1, EcR interaction with E52 or SMRT (Drosophila melanogaster, UniProt P34021); experiment: Yeast two-hybrid assay, E52-EcR or SMRT-EcR interaction; type: cell-based; settings: 3 μM ligand
T1 construct: the region corresponding to amino acids 223-878 of EcRB1; expressed in transfected cells; host or cells: Y190 yeast cells
T1 sequence (P34021 223-878): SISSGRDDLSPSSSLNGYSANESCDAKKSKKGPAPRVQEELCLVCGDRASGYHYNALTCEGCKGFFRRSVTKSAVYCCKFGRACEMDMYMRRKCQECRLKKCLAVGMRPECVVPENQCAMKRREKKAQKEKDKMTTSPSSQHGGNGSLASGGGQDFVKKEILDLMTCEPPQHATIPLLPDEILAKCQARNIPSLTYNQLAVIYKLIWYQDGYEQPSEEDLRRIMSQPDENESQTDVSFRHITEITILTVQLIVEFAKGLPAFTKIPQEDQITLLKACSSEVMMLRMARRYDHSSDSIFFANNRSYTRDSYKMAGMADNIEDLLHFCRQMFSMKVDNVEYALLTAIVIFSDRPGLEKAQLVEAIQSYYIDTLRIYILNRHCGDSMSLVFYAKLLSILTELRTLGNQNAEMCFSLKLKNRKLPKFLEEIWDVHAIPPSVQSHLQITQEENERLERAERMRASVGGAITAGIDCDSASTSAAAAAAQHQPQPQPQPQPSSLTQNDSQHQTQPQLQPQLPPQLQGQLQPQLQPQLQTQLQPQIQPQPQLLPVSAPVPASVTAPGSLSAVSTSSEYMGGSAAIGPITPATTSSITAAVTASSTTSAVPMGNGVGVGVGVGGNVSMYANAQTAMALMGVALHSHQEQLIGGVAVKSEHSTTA
Description: Transformants were selected onto DO-Leu-Trp-His plates containing 40 mM 3-aminotriazole (Sigma) for 3-4 days. Surviving yeast colonies were picked as primary positives and restreaked on selection plates to isolate single clones. Activation domain plasmids were rescued from the selected positive transformants for further analysis. Each clone was evaluated by testing its potential interaction with several other nuclear receptors using the yeast two-hybrid assays. […] Quantitative liquid assay of β-galactosidase was performed on positive clones 16 hr after treating the yeast cells with no ligand, or with 3 μM ligand.

[2] = biological target: T2, EcR:USP complex with SMRTER ERID1/ERID2 (Drosophila melanogaster, UniProt P34021); experiment: In vitro GST pull-down of 35S-labeled EcR by GST-ERID1 / GST-ERID2; type: binding; settings: 3 μM, when USP is present
T2 construct: made in house; host or cells: EcR and USP: TNT (Promega) coupled transcription-translation; GST fusions: E. coli DH5
T2 sequence (P34021 1-878): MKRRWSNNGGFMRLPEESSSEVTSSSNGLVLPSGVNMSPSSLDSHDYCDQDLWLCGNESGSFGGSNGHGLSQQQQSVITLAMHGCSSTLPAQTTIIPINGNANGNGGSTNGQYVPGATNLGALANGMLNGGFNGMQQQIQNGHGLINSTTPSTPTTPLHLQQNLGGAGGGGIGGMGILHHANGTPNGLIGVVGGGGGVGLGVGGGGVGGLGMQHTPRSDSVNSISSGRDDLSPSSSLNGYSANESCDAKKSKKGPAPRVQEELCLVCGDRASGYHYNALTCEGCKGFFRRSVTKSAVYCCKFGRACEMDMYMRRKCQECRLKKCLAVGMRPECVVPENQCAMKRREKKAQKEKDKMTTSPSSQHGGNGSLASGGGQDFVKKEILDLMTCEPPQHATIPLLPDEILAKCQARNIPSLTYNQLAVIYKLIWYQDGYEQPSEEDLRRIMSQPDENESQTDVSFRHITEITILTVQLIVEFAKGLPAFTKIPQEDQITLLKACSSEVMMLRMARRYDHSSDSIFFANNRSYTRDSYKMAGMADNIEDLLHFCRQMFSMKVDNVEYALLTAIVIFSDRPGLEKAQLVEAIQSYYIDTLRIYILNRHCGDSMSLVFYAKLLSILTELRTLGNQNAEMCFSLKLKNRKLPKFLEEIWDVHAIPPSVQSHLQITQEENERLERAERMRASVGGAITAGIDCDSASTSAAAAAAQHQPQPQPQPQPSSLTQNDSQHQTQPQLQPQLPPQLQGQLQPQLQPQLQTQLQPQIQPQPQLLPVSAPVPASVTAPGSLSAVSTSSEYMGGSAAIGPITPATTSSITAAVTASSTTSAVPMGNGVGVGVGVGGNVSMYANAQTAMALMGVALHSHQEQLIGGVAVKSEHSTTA
T2 sequence (P20153 1-508 partner): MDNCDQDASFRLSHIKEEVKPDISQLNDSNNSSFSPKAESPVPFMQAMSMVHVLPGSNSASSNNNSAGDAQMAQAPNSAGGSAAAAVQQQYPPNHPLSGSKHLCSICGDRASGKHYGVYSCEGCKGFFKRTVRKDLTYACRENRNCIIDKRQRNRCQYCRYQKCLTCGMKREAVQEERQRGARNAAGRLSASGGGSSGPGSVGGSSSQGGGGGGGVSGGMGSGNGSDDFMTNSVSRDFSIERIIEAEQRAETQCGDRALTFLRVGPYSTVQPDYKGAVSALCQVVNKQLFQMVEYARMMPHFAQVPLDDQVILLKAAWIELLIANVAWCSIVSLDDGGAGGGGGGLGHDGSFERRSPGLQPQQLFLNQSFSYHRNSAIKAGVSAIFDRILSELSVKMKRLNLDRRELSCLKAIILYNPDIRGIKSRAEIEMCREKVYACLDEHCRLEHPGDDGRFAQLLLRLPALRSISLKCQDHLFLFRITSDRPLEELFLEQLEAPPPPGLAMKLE
Description: Glutathione S-transferase fusion proteins, including GST-X, GST-ERID1 (amino acids 1698-2063 of SEQ ID NO:1), and GST-ERID2 (amino acids 2951-3038 of SEQ ID NO:1), were expressed in E. coli DH5 cells, and extracts were affinity purified by binding to glutathione Sepharose 4B beads. Bound proteins used as affinity matrices in pull-down experiments were first equilibrated with the binding buffer (20 mM HEPES [pH 7.9], 150 mM NaCl, 1 mM EDTA, 4 mM MgCl2, 1 mM DTT, 0.06% NP40, 10% Glycerol, 0.25 mM PMSF, 1 mg BSA). For pull-down assays using GST-ERID1 (amino acids 1698-2063 of SEQ ID NO:1) and GST-ERID2 (amino acids 2951-3038 of SEQ ID NO:1), additional hsp27EcRE (0.05 μg/ml) was added to the binding buffer. In this experiment, […] of 50% GST-protein beads slurry, containing approximately 1 μg of proteins, were incubated with 10 μl of 35S-methionine-labeled proteins in 300 μl of the binding buffer (with or without 3 μM of MurA as indicated) for 30 min at room temperature. After the incubation, beads were washed three times with the binding buffer (with or without ligand) and resuspended in SDS-PAGE sample buffer before loading. After electrophoresis, bound radio-labeled proteins were visualized by autoradiography. […]

With `CC(C)CC[C@@H](O)[C@](C)(O)[C@H]1CC[C@@]2(O)C3=CC(=O)[C@]4(O)C[C@@H](O)[C@@H](O)C[C@]4(C)[C@H]3[C@H](O)C[C@]12C` [Muristerone A] the “dissociation of the interaction between E52 and EcR by ligand” value [1] was “not dissociated”, the “dissociation of the interaction between SMRT and EcR by ligand” value [1] was “not dissociated” and the “effect of ligand on GST-ERID/EcR pull-down complex” value [2] was “disrupted”.
